Assay results reported in patent publication US7569550B2, “14 and 15 membered ring compounds” (Glaxo Group Limited, priority 2003, dated 2009).
Where a name gives a salt, the structure may show the parent alone.

Legend:
Assay in all cases: MIC, standard broth dilution method in microtitre
Format in all cases: cell-based
[1] = tested on: erythromycin resistant strains of Streptococcus pyogenes
Description: (§1) Using a standard broth dilution method in microtitre, compounds were tested for antibacterial activity. The compounds in the above examples gave minimum inhibitory concentrations (MICs) less than 1 microgram per millilitre against erythromycin-sensitive and erythromycin-resistant strains of Streptococcus pneumoniae and Streptococcus pyogenes.

[2] = tested on: erythromycin resistant strains of Streptococcus pneumoniae
Description: as §1

E. faecalis ATCC 29212 = conditions: Enterococcus faecalis, ATCC29212
Description: as §1
(§2) In addition, the MIC (μg/ml) of test compounds against various organisms was determined including:
(§3) S. aureus Smith ATCC 13709, S. pneumoniae SP030, S. pyogenes 3565, E. faecalis ATCC 29212, H. influenzae ATCC 49247, M. catarrhalis ATCC 23246.

[3] = tested on: S. aureus Smith ATCC 13709; conditions: Staphylococcus aureus, ATCC13709
Description: as §1, §2, §3

S. pyogenes 3565 = conditions: Streptococcus pyogenes
Description: as §1, §2, §3

S. pneumoniae SP030 = conditions: Streptococcus pneumoniae
Description: as §1, §2, §3

Row | MIC [1] [µg/mL] | MIC [2] [µg/mL] | MIC (E. faecalis ATCC 29212) [µg/mL] | MIC [3] [µg/mL] | MIC (S. pyogenes 3565) [µg/mL] | MIC (S. pneumoniae SP030) [µg/mL] | Compound
1 | ≤ 1 | ≤ 1 |  |  |  |  | CC[C@@H]1OC(=O)[C@H](C)[C@H](O[C@@H]2C[C@](C)(OC)[C@H](OCCCNCCNc3nc4c(cc3F)c(=O)c(C(=O)O)cn4CC)[C@H](C)O2)[C@@H](C)[C@H](O[C@H]2O[C@@H](C)C[C@@H](N(C)C)[C@H]2O)[C@](C)(OC)C[C@H](C)C(=O)[C@H](C)[C@H]2OC(=O)O[C@@]12C [Example 12, 4″-O-{3-[2-(3-Carboxy-1-ethyl-6-fluoro-4-oxo-1,4-dihydro-[1,8]naphthyridin-7-ylamino)ethylamino]-propyl}-6-O-methyl-erythromycin A 11,12-carbonate formate]
2 | ≤ 1 | ≤ 1 | ≤ 1 | ≤ 1 | ≤ 1 | ≤ 1 | CC[C@H]1OC(=O)[C@H](C)[C@@H](O[C@H]2C[C@@](C)(OC)[C@@H](OCCCNCCCc3cc4c5c(c3)c(=O)c(C(=O)O)cn5CCC4)[C@H](C)O2)[C@H](C)[C@@H](O[C@@H]2O[C@H](C)C[C@H](N(C)C)[C@H]2O)[C@](C)(OC)C[C@@H](C)C(=O)[C@@H](C)[C@H]2NC(=O)O[C@@]21C [Example 25, 4″-O-{3-[3-(2-Carboxy-1-oxo-6,7-dihydro-1H,5H-pyrido[3,2,1-ij]quinolin-9-yl)-propylamino]-propyl}-6-O-methyl-11-desoxy-11-(R)-amino-erythromycin A 11,12-carbamate formate]
3 | ≤ 1 | ≤ 1 |  |  |  |  | CC[C@@H]1OC(=O)[C@H](C)[C@H](O[C@@H]2C[C@](C)(OC)[C@H](OCCCNCCNc3cc4c(=O)c(C(=O)O)cn(C5CC5)c4cc3Cl)[C@H](C)O2)[C@@H](C)[C@H](O[C@H]2O[C@@H](C)C[C@@H](N(C)C)[C@H]2O)[C@](C)(OC)C[C@H](C)C(=O)[C@H](C)[C@H]2OC(=O)O[C@@]12C [Example 10, 4″-O-{3-[2-(3-Carboxy-7-chloro-1-cyclopropyl-4-oxo-1,4-dihydro-quinolin-6-ylamino)ethylamino]-propyl}-6-O-methyl-erythromycin A 11,12-carbonate formate]
4 | ≤ 1 | ≤ 1 |  |  |  |  | CC[C@@H]1OC(=O)[C@H](C)[C@H](O[C@@H]2C[C@](C)(OC)[C@H](OCCCNCCOc3ccc4c(c3)c(=O)c(C(=O)O)cn4CC)[C@H](C)O2)[C@@H](C)[C@H](O[C@H]2O[C@@H](C)C[C@@H](N(C)C)[C@H]2O)[C@](C)(OC)C[C@H](C)C(=O)[C@H](C)[C@H]2OC(=O)O[C@@]12C [Example 3, 4″-O-{3-[2-(3-Carboxy-1-ethyl-4-oxo-1,4-dihydro-quinolin-6-yloxy)-ethylamino]-propyl}-6-O-methyl-erythromycin A 11,12-carbonate bis trifluoroacetate]
5 | ≤ 1 | ≤ 1 |  |  |  |  | CCc1cc(C(=O)O)c(=O)n2ccc(NCCNCCCO[C@H]3[C@H](C)O[C@@H](O[C@H]4[C@H](C)[C@@H](O[C@@H]5O[C@H](C)C[C@H](N(C)C)[C@H]5O)[C@](C)(OC)C[C@@H](C)C(=O)[C@@H](C)[C@H]5NC(=O)O[C@]5(C)[C@@H](CC)OC(=O)[C@@H]4C)C[C@@]3(C)OC)cc12 [Example 26, 4″-O-{3-[2-(3-Carboxy-1-ethyl-4-oxo-4-H-quinolizin-7-ylamino)-ethylamino]-propyl}-6-O-methyl-11-desoxy-11-(R)-amino-erythromycin A 11,12-carbamate formate]
6 | ≤ 1 | ≤ 1 | ≤ 1 | ≤ 1 | ≤ 1 | ≤ 1 | CC[C@H]1OC(=O)[C@H](C)[C@@H](O[C@H]2C[C@@](C)(OC)[C@@H](OCCCNCCOc3cc4c5c(c3)c(=O)c(C(=O)O)cn5CCC4)[C@H](C)O2)[C@H](C)[C@@H](O[C@@H]2O[C@H](C)CC(N(C)C)[C@H]2O)[C@](C)(OC)C[C@@H](C)C(=O)[C@@H](C)[C@H]2NC(=O)O[C@@]21C (stereo partly drawn) [Example 22, 4″-O-{3-[2-(2-Carboxy-1-oxo-6,7-dihydro-1H,5H-pyrido[3,2,1-ij]quinolin-9-yloxy)-ethylamino]-propyl}-6-O-methyl-11-desoxy-11-(R)-amino-erythromycin A 11,12-carbamate formate]
7 |  |  | ≤ 1 | ≤ 1 | ≤ 1 | ≤ 1 | CC[C@@H]1OC(=O)[C@H](C)[C@H](O[C@@H]2C[C@](C)(OC)[C@H](OCCCNCCCc3ccc4c(c3)c(=O)c(C(=O)O)cn4CC)[C@H](C)O2)[C@@H](C)[C@H](O[C@H]2O[C@@H](C)C[C@@H](N(C)C)[C@H]2O)[C@](C)(OC)C[C@H](C)C(=O)[C@H](C)[C@H](O)[C@@]1(C)O [Example 5, 4″-O-{3-[3-(3-Carboxy-1-ethyl-4-oxo-1,4-dihydro-quinolin-6-yl)-propylamino]-propyl}-6-O-methyl-erythromycin A bisformate]
8 | ≤ 1 | ≤ 1 |  |  |  |  | CC[C@@H]1OC(=O)[C@H](C)[C@H](O[C@@H]2C[C@](C)(OC)[C@H](OCCCNCCNc3cc4c(cc3F)c(=O)c(C(=O)O)cn4C3CC3)[C@H](C)O2)[C@@H](C)[C@H](O[C@H]2O[C@@H](C)C[C@@H](N(C)C)[C@H]2O)[C@](C)(OC)C[C@H](C)C(=O)[C@H](C)[C@H]2OC(=O)O[C@@]12C [Example 11, 4″-O-{3-[2-(3-Carboxy-1-cyclopropyl-6-fluoro-4-oxo-1,4-dihydro-quinolin-7-ylamino)ethylamino]-propyl}-6-O-methyl-erythromycin A 11,12-carbonate formate]
9 | ≤ 1 | ≤ 1 |  |  |  |  | CC[C@@H]1OC(=O)[C@H](C)[C@H](O[C@@H]2C[C@](C)(OC)[C@H](OCCCNCCCc3ccc4c(c3)c(=O)c(C(=O)O)cn4CC)[C@H](C)O2)[C@@H](C)[C@H](O[C@H]2O[C@@H](C)C[C@@H](N(C)C)[C@H]2O)[C@](C)(OC)C[C@H](C)C(=O)[C@H](C)[C@H]2OC(=O)O[C@@]12C [Example 9, 4″-O-{3-[3-(3-Carboxy-1-ethyl-4-oxo-1,4-dihydro-quinolin-6-yl)propylamino]-propyl}-6-O-methyl-erythromycin A 11,12-carbonate formate]
10 | ≤ 1 | ≤ 1 |  |  |  |  | CC[C@H]1OC(=O)[C@H](C)[C@@H](O[C@H]2C[C@@](C)(OC)[C@@H](OCCCNCCCc3cnc4c(c3)c(=O)c(C(=O)O)cn4CC)[C@H](C)O2)[C@H](C)[C@@H](O[C@@H]2O[C@H](C)C[C@H](N(C)C)[C@H]2O)[C@](C)(OC)C[C@@H](C)C(=O)[C@@H](C)[C@H]2NC(=O)O[C@@]21C [Example 24, 4″-O-{3-[3-(3-Carboxy-1-ethyl-4-oxo-1,4-dihydro-6-[1,8]naphthryidinyl)-propylamino]-propyl}-6-O-methyl-11-desoxy-11-(R)-amino-erythromycin A 11,12-carbamate formate]
11 | ≤ 1 | ≤ 1 | ≤ 1 | ≤ 1 | ≤ 1 | ≤ 1 | CC[C@@H]1OC(=O)[C@H](C)[C@H](O[C@@H]2C[C@](C)(OC)[C@H](OCCCNCCCc3ccc4c(c3)c(=O)c(C(=O)O)cn4CC)[C@H](C)O2)[C@@H](C)[C@H](O[C@H]2O[C@@H](C)C[C@@H](N(C)C)[C@H]2O)[C@](C)(OC)C[C@H](C)C(=O)[C@H](C)[C@H]2N(C)C(=O)O[C@@]12C [Example 7, 4″-O-{3-[2-(3-Carboxy-1-ethyl-4-oxo-1,4-dihydro-quinolin-6-yl)-propylamino]-propyl}-6-O-methyl-11-desoxy-11-(R)-methylamino-erythromycin A 11,12-carbamate formate]
